Key:
Conditions in all cases: incubation time: 72 h
[1] = system: BT-549; assay: drug sensitivity score (DSS), CellTiter-Blue viability (DSS (AUC-based score)); higher = stronger viability inhibition; extreme values may be limits of the assay
Procedure: (§1)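 DSRT with the CellTiter-Blue (resazurin reduction) viability readout, fluorescence 560/590 nm, 72 h incubation. Plates were normalised to DMSO and benzethonium chloride controls. DSS is computed from the area under the fitted dose-response curve (5 or 9 concentrations).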

[2] = system: CAL-148; assay: as above
Procedure: as §1

[3] = system: HCC1599; assay: as above
Procedure: as §1

[4] = system: SK-BR-3; assay: as above
Procedure: as §1

[5] = system: BT-474; assay: as above
Procedure: as §1

[6] = system: CAL-85-1; assay: as above
Procedure: as §1

[7] = system: Hs578T; assay: as above
Procedure: as §1

[8] = system: CAL-51; assay: as above
Procedure: as §1

[9] = system: MDA-MB-436; assay: as above
Procedure: as §1

[10] = system: HCC1143; assay: as above
Procedure: as §1

[11] = system: MFM-223; assay: as above
Procedure: as §1

[12] = system: HCC1937; assay: as above
Procedure: as §1

[13] = system: HDQ-P1; assay: as above
Procedure: as §1

[14] = system: CAL-120; assay: as above
Procedure: as §1

[15] = system: MDA-MB-453; assay: as above
Procedure: as §1

[16] = system: MDA-MB-231; assay: as above
Procedure: as §1

[17] = system: DU-4475; assay: as above
Procedure: as §1

[18] = system: CAL-148; assay: normalised response (% of control), CellTiter-Glo; higher = more viable cells (100 = DMSO, 0 = benzethonium chloride kill control)
Outline: (§2)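 The table gives the normalised signal for a single concentration in each entry. Breast cancer cell lines were seeded (20 µl suspension) into 384-well plates holding compound at 5 concentrations in 10-fold steps over a compound-specific 10,000-fold range and incubated 72 h, then read for CellTox Green fluorescence (485/520 nm) and CellTiter-Glo luminescence. Normalisation on each plate used 0.1 % DMSO (100) and a positive kill control (0).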

[19] = system: HCC1599; assay: as above
Outline: as §2

[20] = system: Hs578T; assay: as above
Outline: as §2

[21] = system: CAL-51; assay: as above
Outline: as §2

[22] = system: HCC1143; assay: as above
Outline: as §2

[23] = system: HCC1937; assay: as above
Outline: as §2

[24] = system: MCF-10A; assay: as above
Outline: as §2

[25] = system: MDA-MB-453; assay: as above
Outline: as §2

[26] = system: MDA-MB-231; assay: as above
Outline: as §2

[27] = system: DU-4475; assay: as above
Outline: as §2

Row | Compound | drug sensitivity score [1] | drug sensitivity score [2] | drug sensitivity score [3] | drug sensitivity score [4] | drug sensitivity score [5] | drug sensitivity score [6] | drug sensitivity score [7] | drug sensitivity score [8] | drug sensitivity score [9] | drug sensitivity score [10] | drug sensitivity score [11] | drug sensitivity score [12] | drug sensitivity score [13] | drug sensitivity score [14] | drug sensitivity score [15] | drug sensitivity score [16] | drug sensitivity score [17] | normalised response [18] | normalised response [19] | normalised response [20] | normalised response [21] | normalised response [22] | normalised response [23] | normalised response [24] | normalised response [25] | normalised response [26] | normalised response [27]
1 | CN1CCC(COc2cnc(-c3cccc(Cn4nc(-c5cccc(C#N)c5)ccc4=O)c3)nc2)CC1 | 6.21 | 2.07 | 0 | 6.8 | 3.92 | 3.23 | 0 | 3.38 | 5.04 | 0 | 2.41 | 4.45 | 2.71 | 3.44 | 4.88 | 5.87 | 2.66 | – | – | – | – | – | – | – | – | – | –
2 | CN1CCC(COc2cnc(-c3cccc(Cn4nc(-c5cccc(C#N)c5)ccc4=O)c3)nc2)CC1 (1000 nM) | – | – | – | – | – | – | – | – | – | – | – | – | – | – | – | – | – | 94.5% | 85.6% | 95.2% | 110% | 97.8% | 84% | 89.3% | 84% | 104% | 101%
3 | CN(C)C/C=C/C(=O)Nc1cc2c(Nc3ccc(F)c(Cl)c3)ncnc2cc1O[C@H]1CCOC1 [Afatinib] (1000 nM) | – | – | – | – | – | – | – | – | – | – | – | – | – | – | – | – | – | 78.6% | 108% | 94.5% | 96.4% | 97.2% | 89.8% | 35.1% | 63.3% | 83.4% | 100%
4 | CN1CC[C@H](c2c(O)cc(O)c3c(=O)cc(-c4ccccc4Cl)oc23)[C@H](O)C1 [Alvocidib] (10000 nM) | – | – | – | – | – | – | – | – | – | – | – | – | – | – | – | – | – | 58.3% | 13.9% | 7.68% | 15.7% | 17% | 26.2% | 7.83% | 18.1% | 3.28% | 8.12%
5 | Nc1nc(Cl)nc2c1ncn2[C@H]1C[C@H](O)[C@@H](CO)O1 [Cladribine] (1000 nM) | – | – | – | – | – | – | – | – | – | – | – | – | – | – | – | – | – | 93.6% | 61.2% | 102% | 124% | 92% | 82.8% | 102% | 126% | 88.4% | 92.9%
6 | Nc1ccn([C@@H]2O[C@H](CO)[C@@H](O)[C@@H]2O)c(=O)n1 [Cytarabine] (10000 nM) | – | – | – | – | – | – | – | – | – | – | – | – | – | – | – | – | – | 40.2% | 69.8% | 77.9% | 25.4% | 55.9% | 76.5% | 71.3% | 76.4% | 79.6% | 69.6%
7 | Cc1c2oc3c(C)ccc(C(=O)N[C@@H]4C(=O)N[C@H](C(C)C)C(=O)N5CCC[C@H]5C(=O)N(C)CC(=O)N(C)[C@@H](C(C)C)C(=O)O[C@@H]4C)c3nc-2c(C(=O)N[C@@H]2C(=O)N[C@H](C(C)C)C(=O)N3CCC[C@H]3C(=O)N(C)CC(=O)N(C)[C@@H](C(C)C)C(=O)O[C@@H]2C)c(N)c1=O [Dactinomycin] (1000 nM) | – | – | – | – | – | – | – | – | – | – | – | – | – | – | – | – | – | 52% | 7.78% | 3.61% | 9.31% | 11.3% | 25.2% | 2.65% | 16.7% | 2.02% | 3.22%
8 | COc1cccc2c1C(=O)c1c(O)c3c(c(O)c1C2=O)C[C@@](O)(C(=O)CO)C[C@@H]3O[C@H]1C[C@H](N)[C@H](O)[C@H](C)O1 [Doxorubicin] (1000 nM) | – | – | – | – | – | – | – | – | – | – | – | – | – | – | – | – | – | 1.22% | 33.2% | 45.6% | 23.7% | 46.2% | 51.4% | 44% | 20.7% | 29% | 0.14%
9 | Cc1ccc(F)c(NC(=O)Nc2ccc(-c3cccc4[nH]nc(N)c34)cc2)c1 [Linifanib] (1000 nM) | – | – | – | – | – | – | – | – | – | – | – | – | – | – | – | – | – | 118% | 105% | 101% | 91.6% | 108% | 103% | 106% | 110% | 109% | 106%
10 | S=c1[nH]cnc2nc[nH]c12 [Mercaptopurine] (10000 nM) | – | – | – | – | – | – | – | – | – | – | – | – | – | – | – | – | – | 85.5% | 27.5% | 47.3% | 80.5% | 101% | 31.8% | 95.3% | 102% | 40.7% | 56.5%
11 | Clc1ccc(C(c2ccccc2Cl)C(Cl)Cl)cc1 (configuration not stated) [Mitotane] (10000 nM) | – | – | – | – | – | – | – | – | – | – | – | – | – | – | – | – | – | 99.1% | 113% | 102% | 64.2% | 98.7% | 94.9% | 102% | 94.9% | 94.9% | 95.9%
12 | COc1cccc2cc(-c3nc([C@H]4CC[C@H](C(=O)O)CC4)n4ncnc(N)c34)[nH]c12 [OSI-027] (10000 nM) | – | – | – | – | – | – | – | – | – | – | – | – | – | – | – | – | – | 39.2% | 74.2% | 33.4% | 38% | 46.5% | 47.6% | 30.5% | 32.2% | 45.7% | 61.2%
13 | OC[C@H]1O[C@@H](n2cnc3c2N=CNC[C@H]3O)C[C@@H]1O [Pentostatin] (10000 nM) | – | – | – | – | – | – | – | – | – | – | – | – | – | – | – | – | – | 105% | 108% | 98% | 90.2% | 99.1% | 98.9% | 106% | 110% | 103% | 99.8%
14 | N#CC[C@H](C1CCCC1)n1cc(-c2ncnc3[nH]ccc23)cn1 [Ruxolitinib] (10000 nM) | – | – | – | – | – | – | – | – | – | – | – | – | – | – | – | – | – | 98.2% | 94.4% | 102% | 88.9% | 93.3% | 96.9% | 72.5% | 87.6% | 86% | 98.4%
15 | C=CC[C@@H]1/C=C(\C)C[C@H](C)C[C@H](OC)[C@H]2O[C@@](O)(C(=O)C(=O)N3CCCC[C@H]3C(=O)O[C@H](/C(C)=C/[C@@H]3CC[C@@H](O)[C@H](OC)C3)[C@H](C)[C@@H](O)CC1=O)[C@H](C)C[C@@H]2OC [Tacrolimus] (10000 nM) | – | – | – | – | – | – | – | – | – | – | – | – | – | – | – | – | – | 103% | 119% | 94.5% | 104% | 86.8% | 94.3% | 103% | 101% | 91.5% | 103%
16 | C=CCNC1=C2C[C@@H](C)C[C@H](OC)[C@H](O)[C@@H](C)/C=C(\C)[C@H](OC(N)=O)[C@@H](OC)/C=C\C=C(/C)C(=O)NC(=CC1=O)C2=O [Tanespimycin] (10000 nM) | – | – | – | – | – | – | – | – | – | – | – | – | – | – | – | – | – | 25% | 54.5% | 34.2% | 14.9% | 32.6% | 34% | 14% | 28.6% | 15.5% | -0.09%
17 | CO[C@H]1C[C@@H]2CC[C@@H](C)[C@@](O)(O2)C(=O)C(=O)N2CCCC[C@H]2C(=O)O[C@H]([C@H](C)C[C@@H]2CC[C@@H](OC(=O)C(C)(CO)CO)[C@H](OC)C2)CC(=O)[C@H](C)/C=C(\C)[C@@H](O)[C@@H](OC)C(=O)[C@H](C)C[C@H](C)/C=C/C=C/C=C/1C [Temsirolimus] (100 nM) | – | – | – | – | – | – | – | – | – | – | – | – | – | – | – | – | – | 58.1% | 90.8% | 67.1% | 61% | 65.2% | 66.8% | 88.6% | 58.9% | 90.2% | 73.6%
18 | C[C@]1(c2nc3c(C(N)=O)cccc3[nH]2)CCCN1 [Veliparib] (10000 nM) | – | – | – | – | – | – | – | – | – | – | – | – | – | – | – | – | – | 99.2% | 77.1% | 98.9% | 96.1% | 91.6% | 93.6% | 97.3% | 121% | 93.3% | 96.8%
19 | CC[C@]1(O)C[C@@H]2CN(CCc3c([nH]c4ccccc34)[C@@](C(=O)OC)(c3cc4c(cc3OC)N(C)[C@H]3[C@@](O)(C(=O)OC)[C@H](OC(C)=O)[C@]5(CC)C=CCN6CC[C@]43[C@@H]65)C2)C1 [Vinblastine] (1000 nM) | – | – | – | – | – | – | – | – | – | – | – | – | – | – | – | – | – | 55.3% | 12.6% | 15.3% | 23.9% | 50.2% | 69.3% | 71.6% | 64.7% | 43.4% | 37.8%
20 | CS(=O)(=O)c1ccc(C(=O)Nc2ccc(Cl)c(-c3ccccn3)c2)c(Cl)c1 [Vismodegib] (10000 nM) | – | – | – | – | – | – | – | – | – | – | – | – | – | – | – | – | – | 86.5% | 88.8% | 99.5% | 97.8% | 89.9% | 90% | 93.9% | 87.9% | 98% | 97.8%

From the supplement of paper PMC4862054
